In patent US12496346B2, “Phospholipid-flavagline conjugates and methods of using the same for targeted cancer therapy” (Cellectar Biosciences, Inc., priority 2019, dated 2025):
Where two headings read alike, the source gives them in different places.

Tests used:
Intestinal Polyp = assay: Uptake in benign tissues; format: in vivo; details: Endogenous Mouse, Adenoma (benign)
[1] = system: Mammary alveolar hyperplasia; assay: Uptake in benign tissues; format: in vivo; details: Endogenous Mouse
[2] = system: Colorectal (HCT-116) tumor; assay: In vivo imaging of targeted delivery; design: species or system nude mouse
Method: Initial targeting noted within 30 minutes (not shown).

[3] = system: A549 (human lung adenocarcinoma); assay: cells; format: cell-based; details: for Therapeutic Index (TI), second value in parentheses: from the NHDF value in parentheses
in vivo = format: in vivo, mice
Method: Listed in Table 5 are the doses administered to the mice, and how many mice were alive after treatment (“3/3” indicates 3 out of 3 mice were alive). […] MTD for CLR 1865 was between 5 and 10 mg/kg.

[4] = system: HCT 116 cells (human colon cancer); format: in vivo; details: three doses of 1 mg/mg each, FIG. 9
in vitro [5] = details: human, plasma
Method: (§2) A small amount of molecule was exposed to plasma, and the plasma was then analyzed via HPLC or MS to determine if the molecule was degraded.

in vitro [6] = details: mouse, plasma
Method: as §2

Plasma stability [7] = assay: Plasma stability
Method: as §2

Plasma stability [8] = assay: Plasma stability; remark: listed apart in the source
Method: as §2

[9] = system: Caki-2 tumor cells (human clear cell renal cell carcinoma); assay: Selective uptake of PDC in co-culture; format: cell-based; details: 5 μM, 24 hours, co-culture with normal fibroblast
Method: (§3) Normal fibroblast and Caki-2 tumor cells (human clear cell renal cell carcinoma) were plated and co-cultured overnight (FIG. 1F). […] The next day cells were washed and co-stained with nucleus stain (Hoescht 33342). CLR 1501 was excited and then detected with an Alexa-Fluor 488 filter.

Normal fibroblast = assay: Selective uptake of PDC in co-culture; format: cell-based; details: 5 μM, 24 hours, co-culture with Caki-2
Method: as §3

A549 cells = assay: Uptake of PDC after disruption of lipid rafts; format: cell-based, human; details: lipid rafts disrupted with methyl b-cyclodextrin vs untreated cells; 5 μM, 24 hours
Method: A549 cells were plated overnight into separate wells.

[10] = system: Human prostate adenocarcinoma cells (PC3); assay: Co-localization with endoplasmic reticulum; format: cell-based; details: 5 μM, 24 hours, ER-tracker
Source text: After washing, the cells were co-stained with ER-tracker® per protocol and imaged using Nikon A1R confocal light microscope. CLR 1501 and ER were excited and detected using Alexa-Fluor 488 using standard fluorescein filters.

[11] = system: PC3 (grade IV, human prostate adenocarcinoma) cell lines; assay: Co-localization with mitochondria; format: cell-based; details: 5 μM, 24 hours, Mitotracker
Source text: The cells were observed using Nikon A1R confocal microscope.

Adrenal H-295 = assay: Tumor uptake of PLE; format: in vivo; details: SCID Mouse, Adenocarcinoma
Method: (§1) Tumor cell uptake was measured continuously for 24 hours.

Adrenal RL-251 = assay: Tumor uptake of PLE; format: in vivo; details: SCID Mouse, Adenocarcinoma
Method: as §1

Breast 4T1 = assay: Tumor uptake of PLE; format: in vivo; details: Endogenous Mouse (orthotopic), Adenocarcinoma
Method: as §1

Breast MCF-7 = assay: Tumor uptake of PLE; format: in vivo; details: Rat, Adenocarcinoma
Method: as §1

Cervical = assay: Tumor uptake of PLE; format: in vivo; details: Endogenous Mouse, Adenocarcinoma
Method: as §1

Colon CT-26 = assay: Tumor uptake of PLE; format: in vivo; details: SCID Mouse, Adenocarcinoma
Method: as §1

Colon DLDI = assay: Tumor uptake of PLE; format: in vivo; details: SCID Mouse, Colorectal adenocarcinoma
Method: as §1

Colon HT-29 = assay: Tumor uptake of PLE; format: in vivo; details: SCID Mouse, Colorectal adenocarcinoma
Method: as §1

Colon LS-180 = assay: Tumor uptake of PLE; format: in vivo; details: Nude Mouse, Adenocarcinoma
Method: as §1

Colon-51 = assay: Tumor uptake of PLE; format: in vivo; details: SCID Mouse, Colorectal adenocarcinoma
Method: as §1

ColonLS180 = assay: Tumor uptake of PLE; format: in vivo; details: SCID Mouse, Colorectal adenocarcinoma
Method: as §1

Esophageal = assay: Tumor uptake of PLE; format: in vivo; details: Endogenous Mouse, Adenocarcinoma
Method: as §1

Glioma C6 = assay: Tumor uptake of PLE; format: in vivo; details: Rat xenograft
Method: as §1

Glioma CNS1 = assay: Tumor uptake of PLE; format: in vivo; details: Rat xenograft
Method: as §1

Glioma L9 = assay: Tumor uptake of PLE; format: in vivo; details: Rat xenograft
Method: as §1

Glioma RG2 = assay: Tumor uptake of PLE; format: in vivo; details: Rat xenograft
Method: as §1

Hepatocellular Carcinoma = assay: Tumor uptake of PLE; format: in vivo; details: Endogenous Mouse, Adenocarcinoma
Method: as §1

Lung A-549 (NSCLC) = assay: Tumor uptake of PLE; format: in vivo; details: SCID Mouse, Adenocarcinoma
Method: as §1

Lung NCI H-69 (Oat Cell) = assay: Tumor uptake of PLE; format: in vivo; details: SCID Mouse, Adenocarcinoma
Method: as §1

Mammary AC = assay: Tumor uptake of PLE; format: in vivo; details: Apc^Min/+ mouse, Adenocarcinoma
Method: as §1

Mammary SCC = assay: Tumor uptake of PLE; format: in vivo; details: Apc^Min/+ mouse, Squamous cell carcinoma
Method: as §1

Melanoma A-375 = assay: Tumor uptake of PLE; format: in vivo; details: Nude Mouse, Adenocarcinoma
Method: as §1

Melanoma = assay: Tumor uptake of PLE; format: in vivo; details: Mouse, Adenocarcinoma
Method: as §1

Min Mouse Intestinal = assay: Tumor uptake of PLE; format: in vivo; details: Endogenous Mouse, Adenocarcinoma
Method: as §1

Ovarian HTB-77 = assay: Tumor uptake of PLE; format: in vivo; details: Nude Mouse, Adenocarcinoma
Method: as §1

Pancreatic BXPC3 = assay: Tumor uptake of PLE; format: in vivo; details: Nude Mouse, Adenocarcinoma
Method: as §1

Pancreatic Capan-1 = assay: Tumor uptake of PLE; format: in vivo; details: Nude Mouse, Adenocarcinoma
Method: as §1

Pancreatic Kras = assay: Tumor uptake of PLE; format: in vivo; details: Endogenous Mouse, Adenocarcinoma
Method: as §1

Pancreatic c-myc = assay: Tumor uptake of PLE; format: in vivo; details: Endogenous Mouse, Adenocarcinoma
Method: as §1

Prostate LnCap = assay: Tumor uptake of PLE; format: in vivo; details: Mouse, Adenocarcinoma
Method: as §1

Prostate LuCap = assay: Tumor uptake of PLE; format: in vivo; details: Mouse, Adenocarcinoma
Method: as §1

Prostate MatLyLu = assay: Tumor uptake of PLE; format: in vivo; details: Rat, Adenocarcinoma
Method: as §1

Prostate PC-3 = assay: Tumor uptake of PLE; format: in vivo; details: SCID Mouse, Adenocarcinoma
Method: as §1

Renal Cell ACHN = assay: Tumor uptake of PLE; format: in vivo; details: Nude Mouse (orthotopic), Adenocarcinoma
Method: as §1

Renal Cell Caki-2 = assay: Tumor uptake of PLE; format: in vivo; details: Nude Mouse (orthotopic), Adenocarcinoma
Method: as §1

Retinoblastoma = assay: Tumor uptake of PLE; format: in vivo; details: Endogenous Mouse, Blastoma
Method: as §1

SCC1 = assay: Tumor uptake of PLE; format: in vivo; details: Nude Mouse, Squamous cell carcinoma
Method: as §1

SCC6 = assay: Tumor uptake of PLE; format: in vivo; details: Nude Mouse, Adenocarcinoma
Method: as §1

Sarcoma (Meth-A) = assay: Tumor uptake of PLE; format: in vivo; details: Nude Mouse, Fibrosarcoma
Method: as §1

TRAMP prostate = assay: Tumor uptake of PLE; format: in vivo; details: Endogenous Mouse, Adenocarcinoma
Method: as §1

Walker-256 = assay: Tumor uptake of PLE; format: in vivo; details: Rat, Carcinosarcoma
Method: as §1

## C[N+](C)(C)CCOP(=O)([O-])OCCCCCCCCCCCCCCCCCCc1ccc(I)cc1 [CLR1404]
Intestinal Polyp
  Tumor Uptake: No
[1]
  Tumor Uptake: No

## CN1/C(=C/C=C2\CCCC(/C=C/C3=[N+](C)c4ccccc4C3(C)C)=C2c2ccc(CCCCCCCCCCCCCCCCCCOP(=O)(O)OCC[N+](C)(C)C)cc2)C(C)(C)c2ccccc21 [CLR 1502]
[2]; 1 mg injected
  time to initial targeting: ≤ 30 min
[2]; 1 mg injected, Pearl Infrared Imaging System
  time to maximum distribution: ≤ 24 h
[2]; approximately 5.5 hours post injection, 1 mg
  distribution in tumor: the tumor still showed red color

## COC(=O)[C@H]1[C@@H](O)[C@@]2(O)c3c(OC)cc(OCCCCNC(=O)OCC(C)(C)SSCCCCCCCCCCCCCCCCCCOP(=O)([O-])OCC[N+](C)(C)C)cc3O[C@@]2(c2ccc(OC)cc2)[C@@H]1c1ccccc1 [CLR 1852]
[3]
  Therapeutic Index (TI): 360
[3]; in vitro
  Therapeutic Index (TI), second value in parentheses: (915)
[3]; various concentrations, FIG. 8 (A549 and NHDF)
  cytotoxic potency compared to FLV3 alone: modest loss in potency
In vivo; Dose 0.1 mg/kg
  mice alive after treatment: 3/3
In vivo; Dose 0.25 mg/kg
  mice alive after treatment: 3/3
In vivo; Dose 0.5 mg/kg
  mice alive after treatment: 3/3
In vivo; Dose 1.0 mg/kg
  mice alive after treatment: 3/3
In vivo; Dose 5.0 mg/kg
  mice alive after treatment: 3/3
In vivo; Dose 10.0 mg/kg
  mice alive after treatment: 3/3
In vivo; mice
  maximum tolerated dose (MTD): did not achieve a maximum tolerated dose
  tolerability compared to FLV3 alone: excellent improvement in tolerability
In vivo; mouse, in vivo
  in vivo therapeutic index: at least 25
[4]
  tumor volume compared to vehicle: reduced the tumor volume beginning at around 27 days
In vitro [5]
  half-life: > 6.67 h
In vitro [6]
  half-life: > 6.67 h
Plasma stability [7]
  human plasma stability: excellent human plasma stability
Plasma stability [8]; species not given
  time stable in plasma: at least 7 hours

## COc1ccc([C@@]23Oc4cc(OCCCCNC(=O)OCC(C)(C)SSCCCCCCCCCCCCCCCCCCOP(=O)([O-])OCC[N+](C)(C)C)cc(OC)c4[C@]2(O)[C@H](O)[C@H](C(=O)O)[C@H]3c2ccccc2)cc1 [CLR 1865]
[3]; in vitro, NHDF IC50 relative to cancer cell IC50
  Therapeutic Index (TI): 11.64
[3]; in vitro
  Therapeutic Index (TI), second value in parentheses: (37.3)
In vivo; Dose 0.1 mg/kg
  mice alive after treatment: 3/3
In vivo; Dose 0.25 mg/kg
  mice alive after treatment: 3/3
In vivo; Dose 0.5 mg/kg
  mice alive after treatment: 3/3
In vivo; Dose 1.0 mg/kg
  mice alive after treatment: 3/3
In vivo; Dose 5.0 mg/kg
  mice alive after treatment: 3/3
In vivo; Dose 10.0 mg/kg
  mice alive after treatment: 2/3
In vivo; mice
  in vivo therapeutic index: ≥ 12.5
  tolerability compared to FLV3 alone: excellent improvement in tolerability
In vivo; mouse, in vivo, mice, read-out: maximum tolerated dose (MTD)
  MTD: 5 to 10 mg/kg
In vitro [5]
  half-life: > 6.67 h
In vitro [6]
  half-life: 3.32 h
Plasma stability [7]
  human plasma stability: excellent human plasma stability
Plasma stability [8]; mouse
  time stable in mouse plasma: 3.3 h

## C[N+](C)(C)CCOP(=O)([O-])OCCCCCCCCCCCCCCCCCCc1ccc(C2=C3C=CC=[N+]3[B-](F)(F)n3cccc32)cc1 [CLR 1501]
[9]
  localization in Caki-2 cells: highly localized
Normal fibroblast
  localization in normal fibroblast cells: minimally
A549 cells
  reduction in uptake: 60%
[10]
  co-localization with ER: co-localized with ER in malignant
[11]
  co-localization with mitochondria: co-localized with mitochondria
Adrenal H-295
  Tumor Uptake: Yes
Adrenal RL-251
  Tumor Uptake: Yes
Breast 4T1
  Tumor Uptake: Yes
Breast MCF-7
  Tumor Uptake: Yes
Cervical
  Tumor Uptake: Yes
Colon CT-26
  Tumor Uptake: Yes
Colon DLDI
  Tumor Uptake: Yes
Colon HT-29
  Tumor Uptake: Yes
Colon LS-180
  Tumor Uptake: Yes
Colon-51
  Tumor Uptake: Yes
ColonLS180
  Tumor Uptake: Yes
Esophageal
  Tumor Uptake: Yes
Glioma C6
  Tumor Uptake: Yes
Glioma CNS1
  Tumor Uptake: Yes
Glioma L9
  Tumor Uptake: Yes
Glioma RG2
  Tumor Uptake: Yes
Hepatocellular Carcinoma
  Tumor Uptake: Yes
Lung A-549 (NSCLC)
  Tumor Uptake: Yes
Lung NCI H-69 (Oat Cell)
  Tumor Uptake: Yes
Mammary AC
  Tumor Uptake: Yes
Mammary SCC
  Tumor Uptake: Yes
Melanoma A-375
  Tumor Uptake: Yes
Melanoma
  Tumor Uptake: Yes
Min Mouse Intestinal
  Tumor Uptake: Yes
Ovarian HTB-77
  Tumor Uptake: Yes
Pancreatic BXPC3
  Tumor Uptake: Yes
Pancreatic Capan-1
  Tumor Uptake: Yes
Pancreatic Kras
  Tumor Uptake: Yes
Pancreatic c-myc
  Tumor Uptake: Yes
Prostate LnCap
  Tumor Uptake: Yes
Prostate LuCap
  Tumor Uptake: Yes
Prostate MatLyLu
  Tumor Uptake: Yes
Prostate PC-3
  Tumor Uptake: Yes
Renal Cell ACHN
  Tumor Uptake: Yes
Renal Cell Caki-2
  Tumor Uptake: Yes
Retinoblastoma
  Tumor Uptake: Yes
SCC1
  Tumor Uptake: Yes
SCC6
  Tumor Uptake: Yes
Sarcoma (Meth-A)
  Tumor Uptake: Yes
TRAMP prostate
  Tumor Uptake: Yes
Walker-256
  Tumor Uptake: Yes
